This passage reports MIC results from patent publication EP0606506A1, “Beta-lactamase resistant antibacterial composition” (Kim, Yeong Sul, priority 1993, dated 1994).

Common to all, as to assay: Agar dilution MIC, in vitro antibacterial activity test
Common to all, as to type: cell-based
A general note: In agar dilution, organisms are placed on agar that contains the substance at set levels.

Experiment [1] relates to Escherichia coli 1507 E. Conditions: 18 h. The method, then:
(§1) The antibacterial activity of each of sulbactam and the compounds I, II, III and IV was measured according to the agar dilution method using Mueller Hinton agar. The compounds to be tested were diluted twice in stages and then introduced into the agar plate. On this agar plate the selected bacterial strains were inoculated and then incubated at 37 °C for 18 hours. The agar plate was then visually observed to determine the minimum concentration, at which the growth of bacterial strains was not observed, which is then designated as the MIC value of the relevant antibiotic compound.
(§2) In the same manner, the MIC value of the compound I, II, III or IV in the presence of sulbactam was measured. In this case, the concentration of sulbactam in each agar plate should be constantly maintained at about 13µg/ml, which corresponds to approximately a quarter of the MIC value of sulbactam, to ensure that the decrease in MIC value of the compounds I - IV in the presence of sulbactam is not affected by the antibacterial activity of sulbactam itself. […] As a result of this experiment, the MIC values of each of four kinds of antibiotics, i.e. the compound I, II, III or IV used alone and in the presence of sulbactam were compared to each other and then the synergistic effect of the composition of the present invention was estimated.

Experiment [2] deals with Escherichia coli DC 0. Conditions: DC0, 18 h. The method, then: as §1, §2
In experiment [3] the test system is Staphylococcus aureus 503. Conditions: Staphylococcus aureus, 503, 18 h. The method, then:
as §1, §2

Experiment [4] relates to Escherichia coli TEM. Conditions: 18 h. The method, then: as §1, §2
In experiment [5] the test system is Staphylococcus aureus 285. Conditions: Staphylococcus aureus, 285, 18 h. The method, then:
as §1, §2

Experiment [6] has as its system Escherichia coli O 55. Conditions: O55, 18 h. The method, then: as §1, §2
For experiment [7], the system named is Escherichia coli DC 2. Conditions: DC2, 18 h. The method, then:
as §1, §2

The test system of experiment [8] is Pseudomonas aeruginosa 1771 M. Conditions: 18 h. The method, then: as §1, §2
Setting [9] is: read-out: MIC value, alone, Mueller Hinton agar, 37°C.
[10] abbreviates: read-out: MIC value, in the presence of sulbactam(13μg/ml), Mueller Hinton agar, 37°C.
Setting [11] is: alone, Mueller Hinton agar, 37°C, read-out: MIC value.
Setting [12] is: in the presence of sulbactam(13μg/ml), Mueller Hinton agar, 37°C, read-out: MIC value.

Read-outs that look alike come from different tables or passages of the source.

`CNC(=O)C[C@@H](N)C(=O)N[C@@H](C(=O)N[C@@H]1C(=O)N2[C@@H]1SC(C)(C)[C@@H]2C(=O)O)c1ccc(O)cc1` [compound IV, 6-[D-2-(D-2-amino-3-N-methylcarbamoyl-propionamido)-2-p-hydroxyphenylacetamido]penicillanic acid]: the MIC in experiment [1] (setting [9]) amounted to 3.12 µg/mL; in experiment [1] (setting [10]) it was 0.098 µg/mL; in experiment [2] (setting [9]) it was 3.12 µg/mL; in experiment [2] (setting [10]) it was 0.781 µg/mL; in experiment [3] (setting [9]), 6.25 µg/mL; in experiment [3] (setting [10]), 1.56 µg/mL. Also, the MIC is above 100 µg/mL in experiment [4] (setting [9]); 25 µg/mL in experiment [4] (setting [10]); 6.25 µg/mL in experiment [5] (setting [9]); 1.56 µg/mL in experiment [5] (setting [10]); 0.781 µg/mL in experiment [6] (setting [9]); below 0.002 µg/mL in experiment [6] (setting [10]). Moreover, the MIC in experiment [7] (setting [9]) worked out at 0.781 µg/mL; in experiment [7] (setting [10]), 0.195 µg/mL; in experiment [8] (setting [9]), 0.391 µg/mL; in experiment [8] (setting [10]), 0.025 µg/mL.

Consider `CC1(C)[C@H](C(=O)O)N2C(=O)C[C@H]2S1(=O)=O` [sulbactam], for which the MIC in experiment [1] (setting [9]) was above 100 µg/mL; in experiment [2] (setting [9]), above 100 µg/mL; in experiment [3] (setting [9]), 100 µg/mL; in experiment [4] (setting [9]), above 100 µg/mL; in experiment [5] (setting [9]) it was 100 µg/mL; in experiment [6] (setting [9]) it was 100 µg/mL. Further, the MIC was 100 µg/mL in experiment [7] (setting [9]) and 50 µg/mL in experiment [8] (setting [9]).

As for `CCN1CCN(C(=O)N[C@@H](C(=O)NC2C(=O)N3[C@@H]2SC(C)(C)[C@@H]3C(=O)O)c2ccc(O)cc2)C(=O)C1=O` (stereo partly drawn) [compound III, 6-[D-2-(4-ethyl-2,3-dioxopiperazinocarbonylamino)-2-(4-hydroxyphenyl)acetamido]penicillanic acid], the MIC in experiment [1] (setting [11]) came out at 0.781 µg/mL; in experiment [1] (setting [12]), 0.098 µg/mL; in experiment [2] (setting [12]), 0.195 µg/mL; in experiment [2] (setting [9]) it was 1.56 µg/mL; in experiment [3] (setting [11]), 6.25 µg/mL; in experiment [3] (setting [12]) it was 0.391 µg/mL. Also, the MIC was above 100 µg/mL in experiment [4] (setting [9]); 1.56 µg/mL in experiment [4] (setting [10]); 3.12 µg/mL in experiment [5] (setting [11]); 0.781 µg/mL in experiment [5] (setting [12]); 0.195 µg/mL in experiment [6] (setting [11]); below 0.002 µg/mL in experiment [6] (setting [12]). Further, the MIC in experiment [7] (setting [11]) stood at 0.098 µg/mL; in experiment [7] (setting [12]), 0.025 µg/mL; in experiment [8] (setting [11]), 0.098 µg/mL; in experiment [8] (setting [12]), 0.025 µg/mL.

With `C=N[C@@H](C(=O)NC1C(=O)N2[C@@H]1SC(C)(C)[C@@H]2C(=O)O)c1ccc(O)cc1` (stereo partly drawn) [compound II, 6-[D-2-(methyleneamino)-2-(4-hydroxyphenyl)acetamido]penicillanic acid], the MIC in experiment [1] (setting [11]) worked out at 6.25 µg/mL; in experiment [1] (setting [12]), 0.098 µg/mL; in experiment [2] (setting [11]), 6.25 µg/mL; in experiment [2] (setting [12]), 3.12 µg/mL; in experiment [3] (setting [11]) it was 1.56 µg/mL; in experiment [3] (setting [12]), 0.098 µg/mL. The MIC in experiment [4] (setting [9]) was above 100 µg/mL; in experiment [4] (setting [10]) it was above 100 µg/mL; in experiment [5] (setting [11]), 1.56 µg/mL; in experiment [5] (setting [12]), 0.195 µg/mL; in experiment [6] (setting [11]), 1.56 µg/mL; in experiment [6] (setting [12]) it was below 0.002 µg/mL. The MIC in experiment [7] (setting [11]) is 1.56 µg/mL; in experiment [7] (setting [12]) it was 0.781 µg/mL; in experiment [8] (setting [11]), 0.195 µg/mL; in experiment [8] (setting [12]) it was 0.049 µg/mL.

For `CC1(C)S[C@@H]2C(NC(=O)[C@H](N)c3ccc(O)cc3)C(=O)N2[C@H]1C(=O)O` (stereo partly drawn) [compound I, 6-[D(-)-α-amino-p-hydroxyphenylacetamido]penicillanic acid], the MIC is 3.12 µg/mL in experiment [1] (setting [11]); 0.391 µg/mL in experiment [1] (setting [12]); 6.25 µg/mL in experiment [2] (setting [11]); 0.781 µg/mL in experiment [2] (setting [12]); 1.56 µg/mL in experiment [3] (setting [11]); 0.098 µg/mL in experiment [3] (setting [12]). Further, the MIC in experiment [4] (setting [9]) is above 100 µg/mL; in experiment [4] (setting [10]), above 100 µg/mL; in experiment [5] (setting [11]), 1.56 µg/mL; in experiment [5] (setting [12]) it was 0.195 µg/mL; in experiment [6] (setting [11]), 1.56 µg/mL; in experiment [6] (setting [12]), below 0.002 µg/mL. Also, the MIC is 1.56 µg/mL in experiment [7] (setting [9]), 0.781 µg/mL in experiment [7] (setting [10]), 0.098 µg/mL in experiment [8] (setting [11]) and 0.098 µg/mL in experiment [8] (setting [12]).
